Experimental data: doi:10.1101/2024.04.17.589937v1 (biorxiv, 2024)

Key:
[1] = target: T1, human mitochondrial RNA polymerase (POLRMT) (Homo sapiens, UniProt O00411); assay: biochemical
[2] = target: T1, human mitochondrial RNA polymerase (POLRMT); assay: single nucleotide incorporation rate assay; format: biochemical
DNA Pol γ = DNA Pol γ (Homo sapiens, UniProt P54098); assay: human DNA polymerase inhibition assay; format: biochemical
DNA Pol α = DNA Pol α (Homo sapiens, UniProt P09884); assay: human DNA polymerase inhibition assay; format: biochemical
[3] = tested on: Human rhinovirus B14 RV-B 14; assay: microbe, parasite or virus in culture; settings: H1-HeLa, read-out: RV EC50 (µM)
[4] = tested on: Human rhinovirus A16 RV-A 16; assay: microbe, parasite or virus in culture; settings: H1-HeLa, read-out: RV EC50 (µM)
[5] = tested on: Human rhinovirus A16 RV-A 16; settings: read-out: H1 HeLa CC50, h1 hela cells, 96 h
EV-D68 [6] = assay: microbe, parasite or virus in culture; settings: Enterovirus D, EVD68, RD, read-out: EV EC50 (µM)
in vitro = settings: human, a549-hace2 cells
Enterovirus A71 EV-71 = assay: microbe, parasite or virus in culture; settings: Enterovirus A, EV71, RD, read-out: EV EC50 (µM)
LLC-MK2 = settings: monkey, llc-mk2 cells
[7] = tested on: Influenza A virus FluA H1N1; assay: microbe, parasite or virus in culture; settings: H1N1, MDCK, read-out: FluA H1N1 EC50 (µM)
[8] = tested on: Human metapneumovirus hMPV A1; assay: microbe, parasite or virus in culture; settings: LLC-MK2, read-out: hMPV A1 EC50 (µM)
MDCK = settings: read-out: MDCK CC50, dog
EV-D68 [9] = settings: read-out: RD CC50; human, rd cells

T1 sequence (O00411 42-1230): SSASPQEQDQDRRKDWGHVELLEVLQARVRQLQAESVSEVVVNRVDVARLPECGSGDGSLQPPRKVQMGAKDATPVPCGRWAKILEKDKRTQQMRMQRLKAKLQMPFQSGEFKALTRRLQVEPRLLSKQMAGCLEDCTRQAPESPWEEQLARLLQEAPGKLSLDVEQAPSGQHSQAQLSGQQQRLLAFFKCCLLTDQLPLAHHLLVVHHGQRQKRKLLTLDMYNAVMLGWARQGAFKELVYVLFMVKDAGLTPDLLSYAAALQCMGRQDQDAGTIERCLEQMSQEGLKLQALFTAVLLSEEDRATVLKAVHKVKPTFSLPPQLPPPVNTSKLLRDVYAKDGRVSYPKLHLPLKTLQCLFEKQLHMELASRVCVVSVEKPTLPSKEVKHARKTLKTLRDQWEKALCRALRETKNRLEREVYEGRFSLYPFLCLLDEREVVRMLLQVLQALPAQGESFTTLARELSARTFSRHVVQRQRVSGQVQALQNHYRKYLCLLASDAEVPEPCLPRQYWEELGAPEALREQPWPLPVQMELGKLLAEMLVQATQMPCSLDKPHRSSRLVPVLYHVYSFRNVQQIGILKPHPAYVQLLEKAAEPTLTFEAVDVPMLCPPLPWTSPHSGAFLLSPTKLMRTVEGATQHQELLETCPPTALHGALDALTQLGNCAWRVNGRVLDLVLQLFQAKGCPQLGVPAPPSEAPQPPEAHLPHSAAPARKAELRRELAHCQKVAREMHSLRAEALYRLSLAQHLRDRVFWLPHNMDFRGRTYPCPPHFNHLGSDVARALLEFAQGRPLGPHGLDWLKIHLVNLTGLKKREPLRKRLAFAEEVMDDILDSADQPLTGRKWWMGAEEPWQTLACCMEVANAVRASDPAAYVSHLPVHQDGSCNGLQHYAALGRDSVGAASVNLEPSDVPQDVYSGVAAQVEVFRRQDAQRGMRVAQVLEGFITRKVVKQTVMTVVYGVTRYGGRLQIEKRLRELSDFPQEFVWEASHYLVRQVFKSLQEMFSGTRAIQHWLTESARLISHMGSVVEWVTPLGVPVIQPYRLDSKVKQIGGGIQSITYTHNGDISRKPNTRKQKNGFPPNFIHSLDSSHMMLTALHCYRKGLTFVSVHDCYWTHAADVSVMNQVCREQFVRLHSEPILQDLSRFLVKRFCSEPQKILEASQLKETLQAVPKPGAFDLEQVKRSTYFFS
Chain of DNA Pol γ (Q9UHN1 26-485): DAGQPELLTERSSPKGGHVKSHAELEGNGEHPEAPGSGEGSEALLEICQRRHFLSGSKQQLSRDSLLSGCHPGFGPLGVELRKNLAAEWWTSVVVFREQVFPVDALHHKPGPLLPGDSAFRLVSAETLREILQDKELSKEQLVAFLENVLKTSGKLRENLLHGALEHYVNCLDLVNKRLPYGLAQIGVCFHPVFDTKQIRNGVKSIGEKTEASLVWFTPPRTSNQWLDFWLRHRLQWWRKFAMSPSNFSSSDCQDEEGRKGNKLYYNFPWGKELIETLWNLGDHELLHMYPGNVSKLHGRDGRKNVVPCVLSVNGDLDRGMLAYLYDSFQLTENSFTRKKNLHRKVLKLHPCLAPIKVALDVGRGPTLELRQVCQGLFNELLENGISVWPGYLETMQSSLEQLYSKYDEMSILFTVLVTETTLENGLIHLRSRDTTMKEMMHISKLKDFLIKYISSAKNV
Chain of DNA Pol γ (P54098 whole entry): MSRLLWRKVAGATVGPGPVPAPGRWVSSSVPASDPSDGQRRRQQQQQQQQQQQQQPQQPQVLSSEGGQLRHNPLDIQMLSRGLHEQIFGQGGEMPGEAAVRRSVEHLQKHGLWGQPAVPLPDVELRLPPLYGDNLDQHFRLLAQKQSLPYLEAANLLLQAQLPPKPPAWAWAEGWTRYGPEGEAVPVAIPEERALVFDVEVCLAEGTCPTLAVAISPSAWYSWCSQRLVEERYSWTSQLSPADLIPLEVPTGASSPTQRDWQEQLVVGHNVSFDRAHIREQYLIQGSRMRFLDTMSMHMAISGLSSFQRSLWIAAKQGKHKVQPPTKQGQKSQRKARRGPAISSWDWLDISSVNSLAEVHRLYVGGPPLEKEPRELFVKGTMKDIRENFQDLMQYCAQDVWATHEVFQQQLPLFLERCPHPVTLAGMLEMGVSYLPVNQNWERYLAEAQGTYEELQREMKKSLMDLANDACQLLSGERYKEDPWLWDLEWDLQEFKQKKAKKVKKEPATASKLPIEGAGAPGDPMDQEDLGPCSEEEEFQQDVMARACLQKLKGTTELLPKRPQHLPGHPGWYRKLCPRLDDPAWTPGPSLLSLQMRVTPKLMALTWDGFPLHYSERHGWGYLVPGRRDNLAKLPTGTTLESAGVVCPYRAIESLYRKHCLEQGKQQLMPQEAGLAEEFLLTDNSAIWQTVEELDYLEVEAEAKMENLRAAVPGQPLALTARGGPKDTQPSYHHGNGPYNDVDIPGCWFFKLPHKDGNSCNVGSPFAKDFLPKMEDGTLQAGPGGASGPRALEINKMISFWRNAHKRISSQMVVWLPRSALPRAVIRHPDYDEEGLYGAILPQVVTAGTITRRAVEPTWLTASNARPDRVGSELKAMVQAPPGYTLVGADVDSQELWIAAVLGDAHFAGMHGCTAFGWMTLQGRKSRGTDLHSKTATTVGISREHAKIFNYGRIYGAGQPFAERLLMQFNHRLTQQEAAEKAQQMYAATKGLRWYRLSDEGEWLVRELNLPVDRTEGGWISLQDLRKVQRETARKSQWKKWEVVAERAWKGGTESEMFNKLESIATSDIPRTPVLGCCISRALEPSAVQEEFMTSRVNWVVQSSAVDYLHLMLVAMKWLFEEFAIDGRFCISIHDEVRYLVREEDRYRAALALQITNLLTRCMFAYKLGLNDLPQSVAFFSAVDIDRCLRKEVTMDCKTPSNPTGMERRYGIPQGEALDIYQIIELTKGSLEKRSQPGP
Chain of DNA Pol α (P09884 whole entry): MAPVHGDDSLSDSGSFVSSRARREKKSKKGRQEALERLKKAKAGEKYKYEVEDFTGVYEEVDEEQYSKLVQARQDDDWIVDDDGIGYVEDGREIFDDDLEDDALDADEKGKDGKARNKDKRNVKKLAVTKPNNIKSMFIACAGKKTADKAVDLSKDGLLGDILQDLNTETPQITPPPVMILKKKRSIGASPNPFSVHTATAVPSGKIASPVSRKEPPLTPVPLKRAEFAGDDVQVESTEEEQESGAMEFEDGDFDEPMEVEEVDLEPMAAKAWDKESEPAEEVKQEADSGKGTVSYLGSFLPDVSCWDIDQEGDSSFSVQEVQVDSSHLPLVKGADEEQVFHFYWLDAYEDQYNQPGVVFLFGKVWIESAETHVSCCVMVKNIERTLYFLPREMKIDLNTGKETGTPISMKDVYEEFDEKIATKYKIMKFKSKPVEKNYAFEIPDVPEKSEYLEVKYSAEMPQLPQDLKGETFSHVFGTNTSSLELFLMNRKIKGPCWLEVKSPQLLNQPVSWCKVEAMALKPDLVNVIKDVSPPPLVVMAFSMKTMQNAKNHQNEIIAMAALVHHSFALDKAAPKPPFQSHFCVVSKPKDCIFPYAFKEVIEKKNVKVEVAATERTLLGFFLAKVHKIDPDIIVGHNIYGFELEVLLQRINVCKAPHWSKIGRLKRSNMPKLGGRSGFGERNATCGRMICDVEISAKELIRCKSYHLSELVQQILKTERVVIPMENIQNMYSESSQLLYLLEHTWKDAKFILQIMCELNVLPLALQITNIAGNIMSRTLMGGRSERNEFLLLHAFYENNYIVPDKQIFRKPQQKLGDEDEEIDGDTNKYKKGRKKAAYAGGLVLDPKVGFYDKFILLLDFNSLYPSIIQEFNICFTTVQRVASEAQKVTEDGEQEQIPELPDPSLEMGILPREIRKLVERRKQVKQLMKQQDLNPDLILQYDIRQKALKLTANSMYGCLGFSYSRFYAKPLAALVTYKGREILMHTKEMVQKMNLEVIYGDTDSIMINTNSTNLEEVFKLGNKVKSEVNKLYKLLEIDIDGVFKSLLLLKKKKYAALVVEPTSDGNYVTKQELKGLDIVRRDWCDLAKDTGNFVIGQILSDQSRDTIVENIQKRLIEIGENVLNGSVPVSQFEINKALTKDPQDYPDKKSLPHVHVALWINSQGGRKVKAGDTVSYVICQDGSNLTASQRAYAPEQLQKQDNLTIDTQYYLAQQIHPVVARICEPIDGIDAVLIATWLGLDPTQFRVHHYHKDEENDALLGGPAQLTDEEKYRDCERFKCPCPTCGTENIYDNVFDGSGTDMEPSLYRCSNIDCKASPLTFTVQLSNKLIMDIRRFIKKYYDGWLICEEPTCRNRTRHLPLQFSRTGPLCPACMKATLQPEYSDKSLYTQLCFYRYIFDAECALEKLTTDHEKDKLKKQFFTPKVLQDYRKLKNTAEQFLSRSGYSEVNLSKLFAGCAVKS

SMILES | IC50 [1] [µM] | SNIR [2] [%] | IC50 (DNA Pol γ) [µM] | IC50 (DNA Pol α) [µM] | EC50 [3] [µM] | EC50 [4] [µM] | CC50 [5] [µM] | EC50 (EV-D68 [6]) [µM] | CC50 at 28 h (in vitro) [µM] | EC50 (Enterovirus A71 EV-71) [µM] | CC50 (LLC-MK2) [µM] | EC50 [7] [µM] | EC50 [8] [µM] | CC50 (MDCK) [µM] | CC50 (EV-D68 [9]) [µM]
N#C[C@]1(COP(=O)(O)OP(=O)(O)OP(=O)(O)O)O[C@@H](c2ccc3c(N)ncnn23)[C@H](O)[C@@H]1O [2-NTP, ((2R,3S,4R,5S)-5-(4-Aminopyrrolo[2,1-f][1,2,4]triazin-7-yl)-2-cyano-3,4-dihydroxytetrahydrofuran-2-yl)methyl triphosphate] | > 200 | 0.8 | > 200 | > 200 |  |  |  |  |  |  |  |  |  |  | 
COC(=O)[C@H](C)N[P@](=O)(OC[C@@]1(C#N)O[C@@H](c2ccc3c(N)ncnn23)[C@H](OC(=O)C(C)C)[C@@H]1OC(=O)C(C)C)Oc1ccccc1 [compound 1, GS-7682] |  |  |  |  | 0.054 ± 0.002 | 0.061 ± 0.006 | 22.2 ± 6.3 | 0.09 ± 0.06 | 21.1 ± 4.4 | 0.083 ± 0.035 | > 2 | > 2 | 0.21 ± 0.05 | > 2 | > 2
